Source: ChEMBL document CHEMBL3272190, “(2-exo-3-endo)-2-Aryltropane-3-carboxylic esters, a new class of narcotic antagonists” (J Med Chem, 1978)
Calls of active or inactive are those of the source. The rule behind the calls is not given here.

How the values were obtained:
Rattus norvegicus [1] = experiment: Narcotic analgesic activity in sc dosed rat assessed as inhibition of phenazocine-induced effect by D'Amour-Smith tail flick test; assay type: functional
Mus musculus [2] = experiment: Antiwrithing activity in sc dosed mouse assessed as prevention of acetylcholine-induced abdominal constriction response; assay type: functional; settings: Abdomen
Mus musculus [3] = experiment: Induction of hyperactiveness in mouse at 30 mg/kg, sc; assay type: organism-based; design: dose 30 mg/kg, route subcutaneous; settings: in vivo
Rattus norvegicus [4] = experiment: Analgesic activity in rat assessed as inhibition of intraarterial bradykinin-induced effect up to 100 mg/kg, sc; assay type: functional; design: scale not given: the % may be the effect or the level left
Mus musculus [5] = experiment: Antiwrithing activity in sc dosed mouse assessed as prevention of phenyl-p-benzoquinone-induced abdominal constriction response; assay type: functional; settings: Abdomen
Mus musculus [6] = experiment: Induction of hyperactiveness in mouse at 75 mg/kg, sc; assay type: organism-based; design: dose 75 mg/kg, route subcutaneous; settings: in vivo
Rattus norvegicus [7] = experiment: Induction of hyperactiveness in rat at 120 mg/kg, sc; assay type: organism-based; design: dose 120 mg/kg, route subcutaneous; settings: in vivo
Rattus norvegicus [8] = experiment: Induction of tremors in rat at 120 mg/kg, sc; assay type: organism-based; design: dose 120 mg/kg, route subcutaneous; settings: in vivo
Rattus norvegicus [9] = experiment: Narcotic analgesic activity in po dosed rat assessed as inhibition of phenazocine-induced effect by D'Amour-Smith tail flick test; assay type: functional
Mus musculus [10] = experiment: Induction of tremors in mouse at 35 mg/kg, sc; assay type: organism-based; design: dose 35 mg/kg, route subcutaneous; settings: in vivo
Mus musculus [11] = experiment: Induction of depression in mouse at 35 mg/kg, sc; assay type: organism-based; design: dose 35 mg/kg, route subcutaneous; settings: in vivo
Rattus norvegicus [12] = experiment: Induction of convulsion in rat at 120 mg/kg, sc; assay type: organism-based; design: dose 120 mg/kg, route subcutaneous; settings: in vivo
Rattus norvegicus [13] = experiment: Narcotic analgesic activity in rat assessed as inhibition of phenazocine-induced effect at 80 mg, sc by D'Amour-Smith tail flick test; assay type: functional
Rattus norvegicus [14] = experiment: Toxicity in rat assessed as mortality at 160 mg, sc; assay type: organism-based; settings: in vivo
Mus musculus [15] = experiment: Induction of convulsion in mouse at 100 mg/kg, sc; assay type: organism-based; design: dose 100 mg/kg, route subcutaneous; settings: in vivo
Rattus norvegicus [16] = experiment: Induction of rigidity in rat at 120 mg/kg, sc; assay type: organism-based; design: dose 120 mg/kg, route subcutaneous; settings: in vivo
Mus musculus [17] = experiment: Antiwrithing activity in po dosed mouse assessed as prevention of acetylcholine-induced abdominal constriction response; assay type: functional; settings: Abdomen
Rattus norvegicus [18] = experiment: Analgesic activity in rat assessed as inhibition of intraarterial bradykinin-induced effect at 10 mg/kg, sc; assay type: functional, organism-based; design: dose 10 mg/kg
Rattus norvegicus [19] = experiment: Narcotic analgesic activity in rat assessed as inhibition of phenazocine-induced effect at 10 mg, ip by D'Amour-Smith tail flick test; assay type: functional, organism-based
Mus musculus [20] = experiment: Induction of depression in mouse at 75 mg/kg, sc; assay type: organism-based; design: dose 75 mg/kg, route subcutaneous; settings: in vivo
Rattus norvegicus [21] = experiment: Toxicity in rat assessed as mortality at >10 mg, ip; assay type: organism-based; settings: in vivo

In the case of `COC(=O)[C@H]1C[C@H]2CC[C@H]([C@H]1c1ccc(O)cc1)N2C` (racemic), the AD50 (Rattus norvegicus [1]) was >80 mg/kg, the ED50 (Mus musculus [2]) was 7.1 mg/kg and the Activity (Mus musculus [3]) was “Toxic”.
`COC(=O)[C@@H]1C[C@H]2CC[C@H]([C@H]1c1cccc(O)c1)N2C` (racemic) was tested, and the Activity (Rattus norvegicus [4]; route subcutaneous) was 0%, the AD50 (Rattus norvegicus [1]) was >80 mg/kg and the ED50 (Mus musculus [5]) was 100 mg/kg. The ED50 (Mus musculus [2]) was 24 mg/kg.
With `COC(=O)[C@H]1C[C@H]2CC[C@H]([C@H]1c1cccc(O)c1)N2C` (racemic) the AD50 (Rattus norvegicus [1]) was 0.37 mg/kg, the Activity (Mus musculus [6]) was “Toxic” and the ED50 (Mus musculus [5]) was 75 mg/kg. For the same compound, the ED50 (Mus musculus [2]) was 16 mg/kg, the Activity (Rattus norvegicus [7]) was “Toxic” and the Activity (Rattus norvegicus [8]) was “Toxic”. The AD50 (Rattus norvegicus [9]) was 1.8 mg/kg.
For `COC(=O)[C@H]1C[C@H]2CC[C@H]([C@H]1c1cccc(OC)c1)N2C` (racemic), the Activity (Mus musculus [10]) was “Toxic”, the AD50 (Rattus norvegicus [1]) was >80 mg/kg and the ED50 (Mus musculus [2]) was 19 mg/kg. The Activity (Mus musculus [11]) was “Toxic”.
With `COC(=O)[C@@H]1C[C@H]2CC[C@H]([C@H]1Cc1ccccc1)N2C` (racemic) the Activity (Rattus norvegicus [12]) was “Toxic”, the AD50 (Rattus norvegicus [1]) was >80 mg/kg and the Activity (Mus musculus [6]) was “Toxic”. For the same compound, the ED50 (Mus musculus [2]) was 5.8 mg/kg.
For `COC(=O)[C@H]1C[C@H]2CC[C@H]([C@H]1Cc1ccccc1)N2C` (racemic), the “inhibition (INH)” value (Rattus norvegicus [13]) was 69%, the Activity (Rattus norvegicus [12]) was “Toxic” and the Activity (Rattus norvegicus [14]) was “Toxic”. It also gave an ED50 (Rattus norvegicus [1]; Rattus norvegicus, Tail, sc) of 54 mg/kg, an ED50 (Mus musculus [5]) of 20 mg/kg and an ED50 (Mus musculus [2]) of 4.4 mg/kg. The Activity (Mus musculus [15]) was “Toxic”.
`COC(=O)[C@@H]1C[C@H]2CC[C@H]([C@H]1c1cccs1)N2C` (racemic) was tested, and the Activity (Rattus norvegicus [16]) was “Toxic”, the Activity (Rattus norvegicus [12]) was “Toxic” and the Activity (Rattus norvegicus [4]) was “Active”. The AD50 (Rattus norvegicus [1]) was >80 mg/kg, the ED50 (Mus musculus [2]) was 12 mg/kg and the Activity (Rattus norvegicus [8]) was “Toxic”. It also gave an ED50 (Mus musculus [17]) of 35 mg/kg.
In the case of `COC(=O)[C@@H]1C[C@H]2CC[C@H]([C@H]1c1ccc[nH]1)N2C` (racemic), the Activity (Rattus norvegicus [18]) was “inactive”, the AD50 (Rattus norvegicus [1]) was 56 mg/kg and the ED50 (Mus musculus [2]) was 13 mg/kg. The ED50 (Mus musculus [17]) was 42 mg/kg.
For `COC(=O)[C@H]1CCN(C)C[C@H]1c1ccccc1` (relative stereo), the Activity (Rattus norvegicus [19]) was “inactive”, the Activity (Mus musculus [20]) was “Toxic” and the ED50 (Mus musculus [2]) was 16 mg/kg. For the same compound, the Activity (Rattus norvegicus [21]) was “Toxic”.
With `COC(=O)[C@H]1CCN(C)C[C@@H]1c1ccccc1` (relative stereo) the Activity (Rattus norvegicus [19]) was “inactive”, the Activity (Mus musculus [20]) was “Toxic” and the ED50 (Mus musculus [2]) was 16 mg/kg. For the same compound, the Activity (Rattus norvegicus [21]) was “Toxic”.
Compound `COC(=O)[C@@H]1CCN(C)C[C@@H]1c1cccs1` (relative stereo) has an AD50 (Rattus norvegicus [1]) of 49 mg/kg.
In the case of `COC(=O)[C@H]1CCN(C)C[C@@H]1c1cccs1` (relative stereo), the AD50 (Rattus norvegicus [1]) was 5.6 mg/kg.
In the case of `CCOC(=O)C1(c2ccccc2)CCN(C)CC1` [MEPERIDINE], the AD50 (Rattus norvegicus [1]) was 19 mg/kg and the AD50 (Rattus norvegicus [9]) was 25 mg/kg.
`CN1CC[C@]23c4c5ccc(O)c4O[C@H]2[C@@H](O)C=C[C@H]3[C@H]1C5` [MORPHINE] showed an AD50 (Rattus norvegicus [1]) of 29 mg/kg and an AD50 (Rattus norvegicus [9]) of 13 mg/kg.
`C=CCN1CC[C@]23c4c5ccc(O)c4O[C@H]2[C@@H](O)C=C[C@H]3[C@H]1C5` [NALORPHINE] was tested, and the AD50 (Rattus norvegicus [1]) was 0.1 mg/kg, the ED50 (Mus musculus [5]) was 15 mg/kg and the AD50 (Rattus norvegicus [9]) was 6 mg/kg.
With `C=CCN1CC[C@]23c4c5ccc(O)c4O[C@H]2C(=O)CC[C@@]3(O)[C@H]1C5` [NALOXONE] the AD50 (Rattus norvegicus [1]) was 0.008 mg/kg, the ED50 (Mus musculus [5]) was 103 mg/kg and the ED50 (Mus musculus [2]) was 60 mg/kg.
